“And” between values parts separate entries of the source, which are not always exact repeats. Equal values may be shown once.

The target in the test is T1, receptor interacting protein kinase 1 (GST-hRIPK1 (8-327)) (Homo sapiens, UniProt Q13546).
T1 construct: GST-hRIPK1 (8-327) enzyme was generated by Proteros GmbH by Baculovirus expression system
T1 sequence (Q13546 8-327): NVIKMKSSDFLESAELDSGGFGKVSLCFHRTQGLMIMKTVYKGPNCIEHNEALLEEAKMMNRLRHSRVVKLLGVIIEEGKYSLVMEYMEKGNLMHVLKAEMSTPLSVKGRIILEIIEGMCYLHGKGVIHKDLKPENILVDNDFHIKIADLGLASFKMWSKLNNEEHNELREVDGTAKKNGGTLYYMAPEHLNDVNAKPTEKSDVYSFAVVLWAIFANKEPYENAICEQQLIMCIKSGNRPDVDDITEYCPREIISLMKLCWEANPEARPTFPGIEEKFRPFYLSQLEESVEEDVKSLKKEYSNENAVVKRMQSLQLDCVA
In words: Fluorescent Polarization Binding (FP Binding) assay. As to conditions: 10 nM GST-hRIPK1 (8-327), 5 nM fluorescent-labeled ligand, 30 min at RT. Summed up: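 Displacement of 5 nM fluorescent ligand from 10 nM GST-hRIPK1 (8-327), 30 min at room temperature in pH 7.5 HEPES buffer, 1% DMSO. Fluorescence polarization read (ex 531/em 595 nm); IC50 fitted from percent inhibition and averaged over at least two independent experiments.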
By IC50 is commonly meant the point on the concentration scale where inhibition reaches its midpoint. Take `CC(C)(C)C(=O)N1OCC[C@H]1c1cccc2ccnn12` [Compound 140, 2,2-dimethyl-1-[(3S)-3-{pyrazolo[1,5-a]pyridin-7-yl}-1,2-oxazolidin-2-yl]propan-1-one]: the 50% inhibitory concentration (IC50) was under 1 µM. To `CC(C)(C)C(=O)N1OCC[C@H]1c1ccc(C#N)nc1` [Compound 143, 5-[(3S)-2-(2,2-dimethylpropanoyl)-1,2-oxazolidin-3-yl]pyridine-2-carbonitrile] belongs under 1 µM. The value for `COc1cc([C@@H]2CCON2C(=O)C(C)(C)C)ccn1` [Compound 144, 1-[(3S)-3-(2-methoxypyridin-4-yl)-1,2-oxazolidin-2-yl]-2,2-dimethylpropan-1-one] was under 1 µM; that for `COc1ccc([C@@H]2CCON2C(=O)C(C)(C)C)cn1` [Compound 145, 1-[(3S)-3-(6-methoxypyridin-3-yl)-1,2-oxazolidin-2-yl]-2,2-dimethylpropan-1-one] was under 1 µM. To `CC(C)(C)C(=O)N1OCC[C@H]1c1ccccc1C#N` [Compound 146, 2-[(3S)-2-(2,2-dimethylpropanoyl)-1,2-oxazolidin-3-yl]benzonitrile] belongs under 1 µM; to `CC(C)(C)C(=O)N1OCC[C@H]1c1cccc(C#N)c1` [Compound 147, 3-[(3S)-2-(2,2-dimethylpropanoyl)-1,2-oxazolidin-3-yl]benzonitrile], under 1 µM; to `CC(C)(C)C(=O)N1OCC[C@H]1c1ccc(C2CC2)nc1` [Compound 148, 1-[(3S)-3-(6-cyclopropylpyridin-3-yl)-1,2-oxazolidin-2-yl]-2,2-dimethylpropan-1-one], under 1 µM.

With `CC(C)(C)C(=O)N1OCC[C@H]1c1ccnc(N)c1` [Compound 149, 1-[(3S)-3-(2-aminopyridin-4-yl)-1,2-oxazolidin-2-yl]-2,2-dimethylpropan-1-one], the IC50 is 1 to 10 µM.

In turn, `CC(C)(C)C(=O)N1OCC[C@H]1c1cc(C#N)ccc1F` [Compound 150, 3-[(3S)-2-(2,2-dimethylpropanoyl)-1,2-oxazolidin-3-yl]-4-fluorobenzonitrile] gave an IC50 of under 1 µM. With `CC(C)(C)C(=O)N1OCC[C@H]1c1ccc(C#N)c(F)c1` [Compound 151, 4-[(3S)-2-(2,2-dimethylpropanoyl)-1,2-oxazolidin-3-yl]-2-fluorobenzonitrile], the half-maximal inhibitory concentration (IC50) is under 1 µM. To `Cc1ccc([C@@H]2CCON2C(=O)C(C)(C)C)cn1` [Compound 152, 2,2-dimethyl-1-[(3S)-3-(6-methylpyridin-3-yl)-1,2-oxazolidin-2-yl]propan-1-one] belongs under 1 µM; to `CC(C)(C)C(=O)N1OCC[C@H]1c1ccc(F)c(C#N)c1` [Compound 153, 5-[(3S)-2-(2,2-dimethylpropanoyl)-1,2-oxazolidin-3-yl]-2-fluorobenzonitrile], under 1 µM; to `CC(C)(COC(F)F)C(=O)N1OCC[C@H]1c1ccc(C#N)cc1` [Compound 154, 4-[(3S)-2-[3-(difluoromethoxy)-2,2-dimethylpropanoyl]-1,2-oxazolidin-3-yl]benzonitrile], under 1 µM.

Molecule `CC1(C(=O)N2OCC[C@H]2c2ccc(F)cc2)CC(F)(F)C1` [Compound 155, (3S)-2-(3,3-difluoro-1-methylcyclobutane-carbonyl)-3-(4-fluorophenyl)-1,2-oxazolidine] had an IC50 of under 1 µM. For the molecule `CC(C)(C(=O)N1OCC[C@H]1c1ccc(F)cc1)N1CCC1` [Compound 156, 2-(azetidin-1-yl)-1-[(3S)-3-(4-fluorophenyl)-1,2-oxazolidin-2-yl]-2-methylpropan-1-one], the IC50 is 1 to 10 µM.

As to `CC(C)(C)C(=O)N1OCCC1c1ccnnc1` (centres unmarked) [Compound 157, 2,2-dimethyl-1-[3-(pyridazin-4-yl)-1,2-oxazolidin-2-yl]propan-1-one], the IC50 lay in the range of 1 to 10 µM. To `N#Cc1ccc([C@@H]2CCON2C(=O)C2(C3CC3)CC2)cc1` [Compound 158, 4-[(3S)-2-(1-cyclopropylcyclopro-panecarbonyl)-1,2-oxazolidin-3-yl]benzonitrile] belongs under 1 µM; to `O=C(N1OCC[C@H]1c1ccc(F)nc1)C1(C2CC2)CC1` [Compound 159, 5-[(3S)-2-(1-cyclopropylcyclopro-panecarbonyl)-1,2-oxazolidin-3-yl]-2-fluoropyridine], under 1 µM. To `O=C(C1C2COCC21)N1OCC[C@H]1c1ccc(F)nc1` (stereo partly drawn) [Compound 160, 2-fluoro-5-[(3S)-2-{3-oxabicyclo[3.1.0]hexane-6-carbonyl}-1,2-oxazolidin-3-yl]pyridine] belongs 1 to 10 µM; to `[2H]C([2H])([2H])C(C(=O)N1OCC[C@H]1c1ccc(F)nc1)(C([2H])([2H])[2H])C([2H])([2H])[2H]` [Compound 161, 1-[(3S)-3-(6-fluoropyridin-3-yl)-1,2-oxazolidin-2-yl]-2,2-bis(^2H3)methyI(^2H3) propan-1-one], under 1 µM. To `CC(C)(COC(F)(F)F)C(=O)N1OCC[C@H]1c1ccc(F)nc1` [Compound 164, 1-[(3S)-3-(6-fluoropyridin-3-yl)-1,2-oxazolidin-2-yl]-2,2-dimethyl-3-(trifluoromethoxy) propan-1-one] belongs under 1 µM; to `CC(C)(CC#N)C(=O)N1OCC[C@H]1c1ccc(F)nc1` [Compound 165, 4-[(3S)-3-(6-fluoropyridin-3-yl)-1,2-oxazolidin-2-yl]-3,3-dimethyl-4-oxobutanenitrile], under 1 µM; to `C[C@](O)(C(=O)N1OCC[C@H]1c1ccc(F)nc1)C(F)(F)F` [Compound 166, (2S)-3,3,3-trifluoro-1-[(3S)-3-(6-fluoropyridin-3-yl)-1,2-oxazolidin-2-yl]-2-hydroxy-2-methylpropan-1-one], 1 to 10 µM. Molecule `O=C(C(C1CC1)C1CC1)N1OCC[C@H]1c1ccc(F)nc1` [Compound 167, 2,2-dicyclopropyl-1-[(3S)-3-(6-fluoropyridin-3-yl)-1,2-oxazolidin-2-yl]ethan-1-one] yielded an IC50 of under 1 µM. To `O=C(N1OCC[C@H]1c1ccc(F)nc1)C1(C(F)F)CCC1` [Compound 168, 5-[(3S)-2-[1-(difluoromethyl)cyclo-butanecarbonyl]-1,2-oxazolidin-3-yl]-2-fluoropyridine] belongs under 1 µM; to `CC(C)(C(=O)N1OCC[C@H]1c1ccc(F)nc1)C(F)F` [Compound 169, 3,3-difluoro-1-[(3S)-3-(6-fluoropyridin-3-yl)-1,2-oxazolidin-2-yl]-2,2-dimethylpropan-1-one], under 1 µM. The value for `O=C(N1OCC[C@H]1c1ccc(F)nc1)C1(C(F)F)CC1` [Compound 170, 5-[(3S)-2-[1-(difluoromethyl)cyclo-propanecarbonyl]-1,2-oxazolidin-3-yl]-2-fluoropyridine] was under 1 µM. The value for `CC(C)(CC#N)C(=O)N1OCC[C@H]1c1ccc(F)cc1` [Compound 171, 4-[(3S)-3-(4-fluorophenyl)-1,2-oxazolidin-2-yl]-3,3-dimethyl-4-oxobutanenitrile] was < 1 µM and 0.011 µM. Turning to `N#CC1(C(=O)N2OCC[C@H]2c2ccc(F)cc2)CC2(COC2)C1` [Compound 172, 6-[(3S)-3-(4-fluorophenyl)-1,2-oxazolidine-2-carbonyl]-2-oxaspiro[3.3]heptane-6-carbonitrile], the IC50 was under 1 µM.

The values are drawn from patent publication US10709692B2, “Isoxazolidine derived inhibitors of receptor interacting protein kinase 1 (RIPK1)” (Denali Therapeutics Inc., priority 2015, dated 2020).
